One series deals with patients. Conditions: clinical use; predominantly elderly patients, often hypokalaemic conditions; cited from earlier work.
A further series has as its system rat. The series can be described thus: arrhythmogenic activity under specific hypokalaemic conditions in the rat. The series is classed as in vivo.
The next series in a line: anti-arrhythmic potency. Conditions: compared with the racemate and the levo-rotatory isomer.
A short description of another series: solubility in water. The series is classed as physicochemical. The following applies: compared with the racemate.
Series [1] is described as follows: QTc prolongation in the ECG (electrocardiogram). The series is classed as in vivo.
The next series has as its system calcium. The experiment in a line: calcium-antagonistic activity (measure for anti-anginal activity). The following applies: compared with either the racemate or the levo-rotatory isomer.

In the case of `CC(C)COCC(CN(Cc1ccccc1)c1ccccc1)N1CCCC1` (racemic) [racemate, bepridil, reference compound], the “rhythm disturbance of the ventricular tachycardia type” value in the series with patients is given as “in rare cases been attended by a self limiting rhythm disturbance of the so-called ventricular tachycardia type”. Moreover, the arrhythmogenic activity entry with rat is reported as “exacerbates arrhythmias”.

On to `CC(C)COC[C@@H](CN(Cc1ccccc1)c1ccccc1)N1CCCC1` [R-(dextro-rotatory) isomer, R-β-[(2-methylpropoxy)-methyl]-N-phenyl-N-(phenylmethyl)-l-pyrrolidine-ethanamine], for which the anti-arrhythmic potency entry in “anti-arrhythmic potency” is listed as “not significantly different”. Further, the solubility in water result in the series “solubility in water” was “much better solubility in water than the racemate”. For the same molecule, in series [1], the QTc prolongation result was “does not produce QTc prolongation”. Besides, in the series with rat, the arrhythmogenic activity result is “do not possess arrhythmogenic activity”. Further, the calcium-antagonistic activity result in the series with calcium was “significant increase of calcium-antagonistic activity”.

(Values after patent EP0146155A1, “Ether of N-propanolamine derivative” (AKZO N.V., priority 1983, dated 1985).)
